Assay results: patent publication US7078418B1, “1-aziridino-1-hydroxyiminomethyl-derivates, method for the production thereof and medicaments containing said compounds” (priority 1999, dated 2006)
Converted amounts (≈) assume the structure as drawn.

Columns and labels:
HT29 = assay: monolayer cytotoxicity test (modified propidium iodide assay), HT29; format: cell-based; conditions: for IC50 antitumoral activity: Colon
Excerpt: (§1) The compounds pursuant to the invention with the general formula I show antitumoral activity. The antitumoral activities of some compounds pursuant to the invention in the monolayer cytotoxicity test on selected cell lines are shown in Table 1. The low susceptibility of fibroblasts and endothelial cells with the use of the compounds pursuant to the invention is surprising.

401 NL = assay: monolayer cytotoxicity test (modified propidium iodide assay), 401 NL; format: cell-based; conditions: Breast
Excerpt: as §1

GXF 251L = assay: monolayer cytotoxicity test (modified propidium iodide assay), GXF 251L; format: cell-based; conditions: Stomach
Excerpt: as §1

LXFL 529 = assay: monolayer cytotoxicity test (modified propidium iodide assay), LXFL 529; format: cell-based; conditions: Lung
Excerpt: as §1

944 LL = assay: monolayer cytotoxicity test (modified propidium iodide assay), 944 LL; format: cell-based; conditions: Kidney
Excerpt: as §1

1138 L = assay: monolayer cytotoxicity test (modified propidium iodide assay), 1138 L; format: cell-based; conditions: Uterus
Excerpt: as §1

[1] = tested on: 12 tumor cell lines (Table 3); assay: cells; conditions: read-out: mean IC50
[2] = tested on: 12 tumor cell lines (Table 3); conditions: mean over 12 cell lines of Table 3
[3] = read-out: IC50 antitumoral activity

Row | IC50 [1] [µg/mL] | Compound | IC50 (HT29; Homo sapiens, HT-29, Colon, read-out: IC50 antitumoral activity) [µg/mL] | IC50 (401 NL; [3]) [µg/mL] | IC50 (GXF 251L; [3]) [µg/mL] | IC50 (LXFL 529; Homo sapiens, read-out: IC50 antitumoral activity) [µg/mL] | IC50 (944 LL; [3]) [µg/mL] | IC50 (1138 L; [3]) [µg/mL] | IC50 antitumoral activity (HT29) [µg/mL] | IC50 antitumoral activity (401 NL) [µg/mL] | IC50 antitumoral activity (GXF 251L) [µg/mL] | IC50 antitumoral activity (LXFL 529) [µg/mL] | mean IC50 [2] [µg/mL] | IC50 antitumoral activity (944 LL) [µg/mL] | IC50 antitumoral activity (1138 L) [µg/mL]
1 | – | O/N=C(/C(=N/O)N1CC1)N1CC1 [Compound 1, 1,1′-[1,2-bis(hydroxyimino)-1,2-ethanediyl]bisaziridine] | 0.486 (≈ 2.86 µM) | 0.04 (≈ 0.235 µM) | 0.781 (≈ 4.59 µM) | 0.441 (≈ 2.59 µM) | 0.923 (≈ 5.42 µM) | 0.173 (≈ 1.02 µM) | – | – | – | – | – | – | –
2 | 0.054 (≈ 0.415 µM) | O=c1[nH]cc(F)c(=O)[nH]1 [Compound 5FU, 5-fluorouracil] | – | – | – | – | – | – | – | – | – | – | – | – | –
3 | – | ON=C(c1cccc(C(=NO)N2CC2)n1)N1CC1 [Compound 6, 2,6-Bis(1-aziridino-1-hydroxyiminomethyl)pyridine] | – | – | – | – | – | – | 0.117 (≈ 0.473 µM) | 0.207 (≈ 0.837 µM) | 0.020 (≈ 0.0809 µM) | 0.027 (≈ 0.109 µM) | 0.030 | 0.115 (≈ 0.465 µM) | 0.014 (≈ 0.0566 µM)
4 | – | ON=C(c1ccc(C(=NO)N2CC2)cc1)N1CC1 [Compound 7, 1,4-Bis(1-aziridino-1-hydroxyiminomethyl)benzene] | – | – | – | – | – | – | 0.258 (≈ 1.05 µM) | 0.018 (≈ 0.0731 µM) | 0.542 (≈ 2.2 µM) | 0.038 (≈ 0.154 µM) | – | 0.348 (≈ 1.41 µM) | 0.038 (≈ 0.154 µM)
5 | – | ON=C(c1cccc(C(=NO)N2CC2)c1)N1CC1 [Compound 9, 1,3-Bis(1-aziridino-1-hydroxyiminomethyl)benzene] | – | – | – | – | – | – | 0.329 (≈ 1.34 µM) | 0.060 (≈ 0.244 µM) | 1.506 (≈ 6.12 µM) | 0.063 (≈ 0.256 µM) | – | 0.788 (≈ 3.2 µM) | 0.066 (≈ 0.268 µM)
6 | – | ON=C(c1cc(C(=NO)N2CC2)cc(C(=NO)N2CC2)c1)N1CC1 [Compound 10, 1,3,5-Tris(1-aziridino-1-hydroxyiminomethyl)benzene] | – | – | – | – | – | – | 0.670 (≈ 2.03 µM) | 0.043 (≈ 0.13 µM) | 3.964 (≈ 12 µM) | 0.100 (≈ 0.303 µM) | – | 0.750 (≈ 2.27 µM) | 0.111 (≈ 0.336 µM)
7 | – | ON=C(c1ccc(C(=NO)N2CC2)nc1)N1CC1 [Compound 14, 2,5-Bis(1-aziridino-1-hydroxyiminomethyl)pyridine] | – | – | – | – | – | – | 0.200 (≈ 0.809 µM) | 0.011 (≈ 0.0445 µM) | 0.717 (≈ 2.9 µM) | 0.006 (≈ 0.0243 µM) | – | 0.198 (≈ 0.801 µM) | 0.034 (≈ 0.138 µM)
8 | – | ON=C(c1ccc(C(=NO)N2CC2)o1)N1CC1 [Compound 16, 2,5-Bis(1-aziridino-1-hydroxyiminomethyl)furan] | – | – | – | – | – | – | 0.481 (≈ 2.04 µM) | 0.039 (≈ 0.165 µM) | 1.661 (≈ 7.03 µM) | 0.099 (≈ 0.419 µM) | – | 1.359 (≈ 5.75 µM) | 0.073 (≈ 0.309 µM)
